In US9828362B2, “1,4-disubstituted imidazole derivative” (Sumitomo Dainippon Pharma Co., Ltd., priority 2015, dated 2017):

Key:
HCT-116 cells = assay: Test for inhibiting sphere-forming ability of cancer cells (in the presence of BSA); assay type: cell-based; details: Homo sapiens, 96 h, Ultra-Low Attachment plate, medium with 5% bovine serum albumin (BSA), cultured 4 days, CellTiter-Glo, read-out: Sphere IC50 value (concentration for 50% inhibition of cell proliferation)
Description: HCT-116 cells were available from the American Type Culture Collection (ATCC). HCT-116 cells were cultured at 37° C. and 5% CO2 using the McCoy's 5a medium containing 10% fetal bovine serum (FBS) and 1% penicillin/streptomycin. […] The test compounds were added into each well to adjust the final concentration of DMSO to 0.1%, and the cells were cultured for 4 days.

HCT-116 tumor = assay: Anti-tumor effect to HCT-116 tumor-bearing mouse; assay type: in vivo; details: nude mouse, oral, dosage 30 mg/kg, administration period 17 days, tumor volume
Source text: The present compound can be used to evaluate the anti-tumor effect thereof. A 4 to 7-week-old nude mouse (BALB/cAnNCrj-nu/nu, female, CHARLES RIVER LABORATORIES JAPAN, INC.) received intradermal transplantation of HCT-116 cells (ATCC) in an amount of 3×10^6 cells/mouse around the ventral portion. The engraftment of HCT-116 cells was observed 5 to 14 days after the transplantation, and then each compound suspended in a solvent such as 0.5% methylcellulose solution was orally administrated to the mouse in a dose of 1 to 100 mg/kg one to twice daily. The tumor volume was measured over time after the administration. to evaluate the effect for reducing the tumor volume by the administration of each compound. The tumor volume can be calculated from the minor axis and the major axis of the tumor measured with a digital caliper (Mitutoyo) according to the following formula: Tumor volume [mm^3]=0.5×minor axis [mm]×(major axis [ram])^2
The tumor volume is control administration group treated. with only a solvent such as 0.5% methylcellulose solution was compared with that of the present compound administration group, and T/C value was calculated according the following formula to evaluate the anti-tumor effect of the present compound. […]

Structure (SMILES)	IC50 (HCT-116 cells)	T/C (%) (HCT-116 tumor)
CC(C)(O)c1ccc(/C=C/C(=O)Nc2cn(Cc3cccc(C(F)(F)F)c3)cn2)cn1 [Example 53, (2E)-3-[6-(2-Hydroxypropan-2-yl)pyridin-3-yl]-N-{1-[3-(trifluoromethyl)benzyl]-1H-imidazol-4-yl}prop-2-enamide]	> 10 µM	
Nc1cc(C(=O)Nc2cn(Cc3cc(F)c(F)c(F)c3)cn2)cnc1CO [Example 46]		91%
